Each compound was assayed against T1, human CGT (Homo sapiens, UniProt Q16880) (assay: CGT Enzyme Assay (Biological Example 2, RapidFire/MS/MS method with 0.01% Tween 80 added)). Details: enzymatic assay, CHO/CGT lysate.
T1 sequence (Q16880 21-541): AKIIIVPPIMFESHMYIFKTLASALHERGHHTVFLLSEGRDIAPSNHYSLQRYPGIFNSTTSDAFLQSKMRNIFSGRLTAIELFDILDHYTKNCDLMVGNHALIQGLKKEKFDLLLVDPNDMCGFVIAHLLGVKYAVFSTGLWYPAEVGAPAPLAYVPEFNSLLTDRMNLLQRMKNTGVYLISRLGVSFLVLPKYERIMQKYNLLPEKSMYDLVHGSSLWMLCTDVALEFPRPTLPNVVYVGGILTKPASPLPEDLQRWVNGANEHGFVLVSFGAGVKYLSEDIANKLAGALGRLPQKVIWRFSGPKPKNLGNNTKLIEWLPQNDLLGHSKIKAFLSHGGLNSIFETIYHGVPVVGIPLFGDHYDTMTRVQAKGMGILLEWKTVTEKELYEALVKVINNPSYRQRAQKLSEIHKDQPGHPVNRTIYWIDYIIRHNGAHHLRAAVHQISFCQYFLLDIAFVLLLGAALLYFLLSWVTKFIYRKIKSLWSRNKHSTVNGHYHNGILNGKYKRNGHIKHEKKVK
Type: biochemical
In short: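 Lysate of CHO cells transfected with full-length human CGT, 0.5% DMSO final, 0.01% Tween 80 added; reactions stopped with methanol:acetonitrile holding internal standard. C6-NBD-dihydro-galactosylceramide and C6-NBD-dihydro-ceramide measured by RapidFire/MS/MS (ESI negative), product peak area normalized to internal standard.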

IC50 [µM] | Compound
10 to 30 | Cc1ccc(N2C(=O)N(c3ccc(Cl)cc3)[C@H](c3cccc(OC(F)(F)F)c3)C2(C)C)cc1 [Example 56-1, (R)-1-(4-chlorophenyl)-4,4-dimethyl-3-(p-tolyl)-5-(3-(trifluoromethoxy)phenyl)imidazolidin-2-one]
10 to 30 | C[C@H]1[C@H](c2cccc(OC(F)(F)F)c2)N(c2ccc(Cl)cc2)C(=O)N1c1ccc(Cl)cc1 [Example 4-1, (4S,5S)-1,3-bis(4-chlorophenyl)-4-methyl-5-(3-(trifluoromethoxy)phenyl)imidazolidin-2-one]
10 to 30 | CC1(C)[C@@H](c2cccc(C#N)c2)N(c2ccc(Cl)cc2)C(=O)N1c1ccc(Cl)cc1 [Example 10-1, (R)-3-(1,3-bis(4-chlorophenyl)-5,5-dimethyl-2-oxoimidazolidin-4-yl)benzonitrile]
< 1 | C[C@@H]1[C@@H](c2ccccc2)N(c2ccc(Br)cc2)C(=O)N1c1ccc(Br)cc1 [Example 2-2, (4R,5R)-1,3-bis(4-bromophenyl)-4-methyl-5-phenylimidazolidin-2-one]
< 1 | CCC[C@@]1(C)[C@H](c2cccc(OC(F)(F)F)c2)N(c2ccc(C#N)cc2)C(=O)N1c1ccc(C#N)cc1 [Example 52-5, 4,4′-((4S,5S)-4-methyl-2-oxo-4-propyl-5-(3-(trifluoromethoxy)phenyl)imidazolidine-1,3-diyl)dibenzonitrile]
1 to 10 | CC[C@@]1(C)[C@@H](c2cccc(OC(F)(F)F)c2)N(c2ccc(Cl)cc2)C(=O)N1c1ccc(Cl)cc1 [Example 19-4, (4S,5R)-1,3-bis(4-chlorophenyl)-4-ethyl-4-methyl-5-(3-(trifluoromethoxy)phenyl)imidazolidin-2-one]
30 to 100 | C[C@H]1[C@H](c2ccccc2)N(c2ccc(Br)cc2)C(=O)N1c1ccc(Br)cc1 [Example 2-1, (4S,5S)-1,3-bis(4-bromophenyl)-4-methyl-5-phenylimidazolidin-2-one]
10 to 30 | C[C@@H]1[C@@H](c2cccc(C#N)c2)N(c2ccc(Cl)cc2)C(=O)N1c1ccc(Cl)cc1 [Example 5-1, 3-((4R,5R)-1,3-bis(4-chlorophenyl)-5-methyl-2-oxoimidazolidin-4-yl)benzonitrile]
1 to 10 | CC[C@]1(C)[C@@H](c2cccc(OC(F)(F)F)c2)N(c2ccc(C#N)cc2)C(=O)N1c1ccc(C#N)cc1 [Example 51-3, 4,4′-((4R,5R)-4-ethyl-4-methyl-2-oxo-5-(3-(trifluoromethoxy)phenyl)imidazolidine-1,3-diyl)dibenzonitrile]
< 1 | N#Cc1ccc(N2C(=O)N(c3ccc(Cl)cc3)C3(COC3)[C@@H]2c2cccc(OC(F)(F)F)c2)cc1 [Example 47-2, (S)-4-(5-(4-chlorophenyl)-6-oxo-8-(3-(trifluoromethoxy)phenyl)-2-oxa-5,7-diazaspiro[3.4]octan-7-yl)benzonitrile]
< 1 | N#Cc1ccc(N2C(=O)N(c3ccc(C#N)cc3)C3(COC3)[C@@H]2c2cccc(OC(F)(F)F)c2)cc1 [Example 36-2]
10 to 30 | Cc1ccc(N2C(=O)N(c3ccc(C#N)cc3)C3(COC3)[C@H]2c2cccc(C#N)c2)cc1 [Example 57-1, (R)-3-(5-(4-cyanophenyl)-6-oxo-7-(p-tolyl)-2-oxa-5,7-diazaspiro[3.4]octan-8-yl)benzonitrile]
< 1 | CC1(C)[C@H](c2cccc(OC(F)(F)F)c2)N(c2ccc(Cl)cc2)C(=O)N1c1ccc(C#N)cc1 [Example 41-2, (S)-4-(3-(4-chlorophenyl)-5,5-dimethyl-2-oxo-4-(3-(trifluoromethoxy)phenyl)imidazolidin-1-yl)benzonitrile]
< 1 | N#Cc1ccc(N2C(=O)N(c3ccc(Cl)cc3)[C@H](c3cccc(OC(F)(F)F)c3)C23COC3)cc1 [Example 46-1, (R)-4-(7-(4-chlorophenyl)-6-oxo-8-(3-(trifluoromethoxy)phenyl)-2-oxa-5,7-diazaspiro[3.4]octan-5-yl)benzonitrile]
1 to 10 | O=C1N(c2ccc(Cl)cc2)[C@H]2CCC[C@@]2(c2cccc(OC(F)(F)F)c2)N1c1ccc(Cl)cc1 [Example 12-1, (3aS,6aS)-1,3-bis(4-chlorophenyl)-3a-(3-(trifluoromethoxy)phenyl)hexahydrocyclopenta[d]imidazol-2(1H)-one]
< 1 | CC1(C)[C@H](c2cccc(OC(F)(F)F)c2)N(c2ccc(Cl)cc2)C(=O)N1c1ccc(Cl)cc1 [Example 7-2, (S)-1,3-bis(4-chlorophenyl)-4,4-dimethyl-5-(3-(trifluoromethoxy)phenyl)imidazolidin-2-one]

IC50 [µM] | Compound
10 to 30 | CC1(C)[C@H](c2cccc(OC(F)(F)F)c2)N(c2ccc(C(F)(F)F)cc2)C(=O)N1c1ccc(C(F)(F)F)cc1 [Example 20-2, (S)-4,4-dimethyl-5-(3-(trifluoromethoxy)phenyl)-1,3-bis(4-(trifluoromethyl)phenyl)imidazolidin-2-one]
< 1 | CC[C@]1(C)[C@H](c2cccc(OC(F)(F)F)c2)N(c2ccc(C#N)cc2)C(=O)N1c1ccc(C#N)cc1 [Example 51-2, 4,4′-((4R,5S)-4-ethyl-4-methyl-2-oxo-5-(3-(trifluoromethoxy)phenyl)imidazolidine-1,3-diyl)dibenzonitrile]
10 to 30 | CC1(C)[C@@H](c2cccc(Cl)c2)N(c2ccc(Cl)cc2)C(=O)N1c1ccc(Cl)cc1 [Example 8-1, (R)-5-(3-chlorophenyl)-1,3-bis(4-chlorophenyl)-4,4-dimethylimidazolidin-2-one]
1 to 10 | CCC[C@@]1(C)[C@H](c2cccc(C#N)c2)N(c2ccc(Cl)cc2)C(=O)N1c1ccc(Cl)cc1 [Example 33-2, 3-((4S,5S)-1,3-bis(4-chlorophenyl)-5-methyl-2-oxo-5-propylimidazolidin-4-yl)benzonitrile]
< 1 | CC[C@@]1(C)[C@H](c2cccc(OC(F)(F)F)c2)N(c2ccc(Cl)cc2)C(=O)N1c1ccc(Cl)cc1 [Example 19-3, (4S,5S)-1,3-bis(4-chlorophenyl)-4-ethyl-4-methyl-5-(3-(trifluoromethoxy)phenyl)imidazolidin-2-one]
< 1 | CC1(C)C(c2cccc(Cl)c2)N(c2ccc(Cl)cc2)C(=O)N1c1ccc(Cl)cc1 (stereo not shown) [Example 8]
30 to 100 | Cc1cccc(C2C(C)N(c3ccc(Cl)cc3)C(=O)N2c2ccc(Cl)cc2)c1 (stereo not shown) [Example 3]
< 1 | CC1(C)[C@H](c2cccc(OC(F)(F)F)c2)N(c2cccc(Cl)c2)C(=O)N1c1cccc(Cl)c1 [Example 28-2, (S)-1,3-bis(3-chlorophenyl)-4,4-dimethyl-5-(3-(trifluoromethoxy)phenyl)imidazolidin-2-one]
< 1 | Cc1ccc(N2C(=O)N(c3ccc(C)cc3)C3(COC3)[C@@H]2c2cccc(C#N)c2)cc1 [Example 32-2, (S)-3-(6-oxo-5,7-di-p-tolyl-2-oxa-5,7-diazaspiro[3.4]octan-8-yl)benzonitrile]
10 to 30 | CC[C@@]1(C)[C@@H](c2cccc(OC(F)(F)F)c2)N(c2ccc(C#N)cc2)C(=O)N1c1ccc(C#N)cc1 [Example 51-6, 4,4′-((4S,5R)-4-ethyl-4-methyl-2-oxo-5-(3-(trifluoromethoxy)phenyl)imidazolidine-1,3-diyl)dibenzonitrile]
1 to 10 | O=C1N(c2ccc(Cl)cc2)C2CCCC2(c2cccc(OC(F)(F)F)c2)N1c1ccc(Cl)cc1 (stereo not shown) [Example 12]
10 to 30 | O=C1N(c2ccc(Cl)cc2)[C@@H]2CCC[C@]2(c2cccc(C(F)F)c2)N1c1ccc(Cl)cc1 [Example 16-2, (3aR,6aR)-1,3-bis(4-chlorophenyl)-3a-(3-(difluoromethyl)phenyl)hexahydrocyclopenta[d]imidazol-2(1H)-one]
10 to 30 | C[C@@H]1[C@@H](c2cccc(OC(F)(F)F)c2)N(c2ccc(Cl)cc2)C(=O)N1c1ccc(Cl)cc1 [Example 4-2, (4R,5R)-1,3-bis(4-chlorophenyl)-4-methyl-5-(3-(trifluoromethoxy)phenyl)imidazolidin-2-one]
< 1 | CC1(C)[C@H](c2cccc(OC(F)(F)F)c2)N(c2ccc(C#N)cc2)C(=O)N1c1ccc(Cl)cc1 [Example 40-2, (S)-4-(3-(4-chlorophenyl)-4,4-dimethyl-2-oxo-5-(3-(trifluoromethoxy)phenyl)imidazolidin-1-yl)benzonitrile]
< 1 | O=C1N(c2ccc(Cl)cc2)C2CCOC[C@@]2(c2cccc(OC(F)(F)F)c2)N1c1ccc(Cl)cc1 (stereo partly drawn) [Example 31-2, (3aS)-1,3-bis(4-chlorophenyl)-3a-(3-(trifluoromethoxy)phenyl)hexahydropyrano[3,4-d]imidazol-2(3H)-one]
10 to 30 | C[C@@]1(C(F)(F)F)[C@H](c2cccc(C#N)c2)N(c2ccc(Cl)cc2)C(=O)N1c1ccc(Cl)cc1 [Example 27-1, 3-((4S,5S)-1,3-bis(4-chlorophenyl)-5-methyl-2-oxo-5-(trifluoromethyl)imidazolidin-4-yl)benzonitrile]

Compound | IC50 [µM]
O=C1N(c2ccc(Cl)cc2)C2CCCCC2(c2cccc(OC(F)(F)F)c2)N1c1ccc(Cl)cc1 (stereo not shown) [Example 15-1, 1,3-bis(4-chlorophenyl)-3a-(3-(trifluoromethoxy)phenyl)octahydro-2H-benzo[d]imidazol-2-one] | 10 to 30
O=C1N(c2ccc(Cl)cc2)[C@@H]2CCC[C@]2(c2cccc(OC(F)F)c2)N1c1ccc(Cl)cc1 [Example 23-2, (3aR,6aR)-1,3-bis(4-chlorophenyl)-3a-(3-(difluoromethoxy)phenyl)hexahydrocyclopenta[d]imidazol-2(1H)-one] | 10 to 30

From patent publication US20190134005A1 (BioMarin Pharmaceutical Inc., priority 2016, published 2019)
